# Experiments:
# Hep 3B2 [1] = assay: Antiproliferative activity against FGF19/FGFR4 dependent human Hep3B cells assessed as reduction in cell viability; type: functional, cell-based
# Huh-7 [2] = assay: Antiproliferative activity against FGF19/FGFR4 dependent human Huh-7 cells assessed as reduction in cell viability; type: functional, cell-based
# [3] = biological target: T1, Fibroblast growth factor receptor 3 (Homo sapiens, UniProt P22607); assay: Inhibition of N-terminal 6xHis-tagged human FGFR3 (450 to 758 residues) transfected in Escherichia coli Rossetta cells incubated for 30 mins by ADP-Glo assay
# [4] = biological target: T2, Fibroblast growth factor receptor 1 (Homo sapiens, UniProt P11362); assay: Inhibition of N-terminal 6xHis-tagged human FGFR1 (456 to 765 residues) transfected in Escherichia coli Rossetta cells incubated for 30 mins by ADP-Glo assay
# [5] = biological target: Fibroblast growth factor receptor 4 (Homo sapiens, UniProt P22455, C477A/C552A); assay: Inhibition of FGFR4 C552A/C477A double mutant (unknown origin)
# [6] = biological target: T3, Fibroblast growth factor receptor 2 (Homo sapiens, UniProt P21802); assay: Inhibition of N-terminal 6xHis-tagged human FGFR2 (453 to 770 residues) transfected in Escherichia coli Rossetta cells incubated for 30 mins by ADP-Glo assay
# Hep 3B2 [7] = assay: Antitumor activity against human Hep3B cells xenografted in BALB/c nude mouse assessed as tumor growth inhibition at 100 mg/kg, po relative to control; type: functional; conditions: read-out: TGI
# Huh-7 [8] = assay: Antiproliferative activity against human Huh-7 cells expressing FGFR2 assessed as reduction in cell viability incubated for 48 hrs by MTT assay; type: functional, cell-based; conditions: Huh-7, 48 h
# Huh-7 [9] = assay: Antiproliferative activity against human Huh-7 cells expressing FGFR3 assessed as reduction in cell viability incubated for 48 hrs by MTT assay; type: functional, cell-based; conditions: Huh-7, 48 h
# [10] = biological target: T1, Fibroblast growth factor receptor 3; assay: Inhibition of FGFR3 (unknown origin) incubated for 30 mins by ADP-Glo assay
# Hep 3B2 [11] = assay: Antiproliferative activity against human Hep3B cells expressing FGFR2 assessed as reduction in cell viability incubated for 48 hrs by MTT assay; type: functional, cell-based
# Hep 3B2 [12] = assay: Antiproliferative activity against human Hep3B cells expressing FGFR3 assessed as reduction in cell viability incubated for 48 hrs by MTT assay; type: functional, cell-based
# [13] = biological target: T2, Fibroblast growth factor receptor 1; assay: Inhibition of FGFR1 (unknown origin) incubated for 30 mins by ADP-Glo assay
# [14] = Half life in human; type: ADME
# [15] = biological target: T3, Fibroblast growth factor receptor 2; assay: Inhibition of FGFR2 (unknown origin)
# [16] = biological target: T2, Fibroblast growth factor receptor 1; assay: Inhibition of FGFR1 (unknown origin)
# [17] = biological target: T1, Fibroblast growth factor receptor 3; assay: Inhibition of FGFR3 (unknown origin)
# T2 sequence (P11362 whole entry, the tested form may be a part): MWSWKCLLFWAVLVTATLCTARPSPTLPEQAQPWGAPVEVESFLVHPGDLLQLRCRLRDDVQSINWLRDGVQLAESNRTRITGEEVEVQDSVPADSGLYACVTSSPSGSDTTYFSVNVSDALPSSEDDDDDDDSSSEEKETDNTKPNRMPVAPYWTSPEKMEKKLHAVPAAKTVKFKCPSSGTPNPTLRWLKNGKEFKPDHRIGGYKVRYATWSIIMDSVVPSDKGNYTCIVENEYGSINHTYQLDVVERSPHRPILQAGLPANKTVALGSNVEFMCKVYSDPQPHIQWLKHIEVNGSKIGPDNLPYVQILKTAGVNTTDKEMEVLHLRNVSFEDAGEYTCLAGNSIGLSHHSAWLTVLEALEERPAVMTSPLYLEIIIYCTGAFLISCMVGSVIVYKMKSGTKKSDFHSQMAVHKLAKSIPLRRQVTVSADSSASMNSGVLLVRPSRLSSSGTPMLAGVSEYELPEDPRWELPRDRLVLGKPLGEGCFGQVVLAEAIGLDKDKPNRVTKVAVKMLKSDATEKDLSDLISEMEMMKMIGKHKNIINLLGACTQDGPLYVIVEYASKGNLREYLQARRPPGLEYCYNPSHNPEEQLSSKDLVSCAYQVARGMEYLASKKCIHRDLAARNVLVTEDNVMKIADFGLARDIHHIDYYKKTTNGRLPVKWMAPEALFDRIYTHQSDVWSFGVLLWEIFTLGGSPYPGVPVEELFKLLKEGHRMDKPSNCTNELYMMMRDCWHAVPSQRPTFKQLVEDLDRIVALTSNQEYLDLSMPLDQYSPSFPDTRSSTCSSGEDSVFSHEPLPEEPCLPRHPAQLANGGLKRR
# T1 sequence (P22607 whole entry, the tested form may be a part): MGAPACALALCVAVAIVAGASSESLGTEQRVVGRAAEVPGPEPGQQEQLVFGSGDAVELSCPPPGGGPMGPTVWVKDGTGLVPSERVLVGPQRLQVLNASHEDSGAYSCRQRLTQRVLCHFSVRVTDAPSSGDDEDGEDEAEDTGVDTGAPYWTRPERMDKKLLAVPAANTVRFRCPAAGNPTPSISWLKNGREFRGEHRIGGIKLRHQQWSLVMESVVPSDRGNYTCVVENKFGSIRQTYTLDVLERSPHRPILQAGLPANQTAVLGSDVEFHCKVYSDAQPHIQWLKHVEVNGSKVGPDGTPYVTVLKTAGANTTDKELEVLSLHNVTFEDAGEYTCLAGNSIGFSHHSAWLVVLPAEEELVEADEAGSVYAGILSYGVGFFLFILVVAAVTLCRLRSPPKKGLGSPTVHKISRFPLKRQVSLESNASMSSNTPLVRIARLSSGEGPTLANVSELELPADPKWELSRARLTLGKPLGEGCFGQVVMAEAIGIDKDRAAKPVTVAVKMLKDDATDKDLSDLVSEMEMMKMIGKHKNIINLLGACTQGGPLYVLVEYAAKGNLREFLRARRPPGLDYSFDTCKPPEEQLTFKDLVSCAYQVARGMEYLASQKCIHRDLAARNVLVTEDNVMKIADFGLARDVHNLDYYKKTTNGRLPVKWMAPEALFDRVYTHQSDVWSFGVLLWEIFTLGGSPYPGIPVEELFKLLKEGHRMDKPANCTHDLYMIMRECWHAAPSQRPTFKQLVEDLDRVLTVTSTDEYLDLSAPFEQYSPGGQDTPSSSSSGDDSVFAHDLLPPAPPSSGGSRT
# T3 sequence (P21802 whole entry, the tested form may be a part): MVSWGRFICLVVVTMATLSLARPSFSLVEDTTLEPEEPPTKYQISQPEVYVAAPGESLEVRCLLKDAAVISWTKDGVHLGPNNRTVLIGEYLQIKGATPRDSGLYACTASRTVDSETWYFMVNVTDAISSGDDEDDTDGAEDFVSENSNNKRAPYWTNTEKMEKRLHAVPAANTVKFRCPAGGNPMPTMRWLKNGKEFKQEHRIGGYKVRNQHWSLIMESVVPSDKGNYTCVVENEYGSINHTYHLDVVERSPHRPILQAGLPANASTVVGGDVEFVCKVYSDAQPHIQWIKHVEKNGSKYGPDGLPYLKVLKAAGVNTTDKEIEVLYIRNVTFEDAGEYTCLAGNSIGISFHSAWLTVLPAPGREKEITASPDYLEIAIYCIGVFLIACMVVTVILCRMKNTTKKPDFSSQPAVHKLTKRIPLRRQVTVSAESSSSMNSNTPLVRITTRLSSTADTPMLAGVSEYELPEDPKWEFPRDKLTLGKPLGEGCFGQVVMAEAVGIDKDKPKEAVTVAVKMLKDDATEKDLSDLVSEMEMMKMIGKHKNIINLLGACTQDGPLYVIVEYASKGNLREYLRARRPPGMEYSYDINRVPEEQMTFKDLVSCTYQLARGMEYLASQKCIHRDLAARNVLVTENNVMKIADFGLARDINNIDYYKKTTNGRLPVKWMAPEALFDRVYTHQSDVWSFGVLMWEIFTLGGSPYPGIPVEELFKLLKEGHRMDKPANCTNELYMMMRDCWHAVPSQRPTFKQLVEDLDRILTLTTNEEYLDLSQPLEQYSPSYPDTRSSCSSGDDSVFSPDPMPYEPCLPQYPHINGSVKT
# Chain of Fibroblast growth factor receptor 4 (P22455 22-802 C477A/C552A limits assumed): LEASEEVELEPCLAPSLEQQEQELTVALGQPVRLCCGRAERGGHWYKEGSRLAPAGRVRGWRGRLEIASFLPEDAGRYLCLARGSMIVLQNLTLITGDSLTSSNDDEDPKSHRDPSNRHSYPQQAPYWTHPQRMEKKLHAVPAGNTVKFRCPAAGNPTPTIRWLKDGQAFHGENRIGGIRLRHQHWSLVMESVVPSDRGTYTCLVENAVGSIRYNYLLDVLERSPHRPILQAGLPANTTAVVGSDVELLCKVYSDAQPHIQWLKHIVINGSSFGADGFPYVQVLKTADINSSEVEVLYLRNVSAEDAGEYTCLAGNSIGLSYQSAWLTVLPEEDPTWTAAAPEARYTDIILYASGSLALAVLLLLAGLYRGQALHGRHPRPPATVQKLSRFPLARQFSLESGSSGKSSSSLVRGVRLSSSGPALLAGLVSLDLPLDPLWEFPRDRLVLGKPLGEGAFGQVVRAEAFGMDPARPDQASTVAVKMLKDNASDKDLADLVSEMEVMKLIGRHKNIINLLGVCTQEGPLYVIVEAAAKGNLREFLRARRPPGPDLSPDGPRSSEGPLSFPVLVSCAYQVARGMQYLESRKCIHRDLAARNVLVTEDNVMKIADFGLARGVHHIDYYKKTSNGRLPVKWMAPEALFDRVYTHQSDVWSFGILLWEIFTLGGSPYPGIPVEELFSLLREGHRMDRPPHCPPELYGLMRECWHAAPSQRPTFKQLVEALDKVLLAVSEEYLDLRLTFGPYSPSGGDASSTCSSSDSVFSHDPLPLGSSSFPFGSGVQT
smiles,measurement,setting,value
COc1cc(OC)c(Cl)c(-c2ccc3nc(NCCCNC(=O)/C(C#N)=C/C4CC4)ncc3c2)c1Cl,IC50,Hep 3B2 [1],9000 nM
same,IC50,Huh-7 [2],9200 nM
C=CC(=O)Nc1ccccc1Nc1ncc2c(n1)N(CCCN1CCN(C(=O)C=C)CC1)C(=O)N(c1c(Cl)c(OC)cc(OC)c1Cl)C2,IC50,[3],977 nM
same,IC50,[4],2580 nM
same,IC50,[5],1530 nM
same,IC50,[6],2410 nM
C=CC(=O)Nc1cc(N2CCN(CC)CC2)ccc1Nc1cc(N(C)C(=O)Nc2c(Cl)c(OC)cc(OC)c2Cl)ncn1 [H3B-6527],inhibition in vivo at 100 mg/kg,Hep 3B2 [7],109%
C=CC(=O)Nc1cc(F)cc(Cl)c1Nc1nc(C)c(OCc2c(F)c(OC)cc(OC)c2F)c(C)n1,IC50,Huh-7 [8],7100 nM
same,IC50,Huh-7 [9],12600 nM
same,IC50,[10],> 30000 nM
same,IC50,Hep 3B2 [11],900 nM
same,IC50,Hep 3B2 [12],4500 nM
same,IC50,[13],> 50000 nM
C=CC(=O)N[C@H]1CCOC[C@H]1Nc1ncc2cc(-c3c(Cl)c(OC)cc(OC)c3Cl)ccc2n1 [FISOGATINIB],half-life,[14],~17 h
same,IC50,[15],493 nM
same,IC50,[16],591 nM
same,IC50,[17],150 nM

# Reference: ChEMBL document CHEMBL5505951, “Insight into the design of FGFR4 selective inhibitors in cancer therapy: Prospects and challenges” (Eur J Med Chem, 2024)
